Reference: ChEMBL document CHEMBL1201862, “PubChem BioAssay data set” (2004)
Active and inactive are the calls of the source.

Legend:
[1] = biological target: T1, Caspase-6 (Homo sapiens, UniProt P55212); assay: human caspase-6 inhibitors, dose response, biochemical, VEID-R110 fluorescence, cherry-pick (AID 720632)
T1 sequence (P55212 whole entry): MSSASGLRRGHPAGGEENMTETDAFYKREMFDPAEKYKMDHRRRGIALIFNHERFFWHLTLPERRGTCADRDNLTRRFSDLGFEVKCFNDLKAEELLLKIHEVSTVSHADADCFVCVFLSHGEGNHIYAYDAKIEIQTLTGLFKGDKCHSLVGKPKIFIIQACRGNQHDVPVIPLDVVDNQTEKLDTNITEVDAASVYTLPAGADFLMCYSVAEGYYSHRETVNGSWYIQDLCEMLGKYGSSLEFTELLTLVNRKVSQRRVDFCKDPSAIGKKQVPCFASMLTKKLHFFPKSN

[2] = biological target: T2, Histone-lysine N-methyltransferase NSD2 (Homo sapiens, UniProt O96028); type: biochemical
T2 sequence (O96028 whole entry): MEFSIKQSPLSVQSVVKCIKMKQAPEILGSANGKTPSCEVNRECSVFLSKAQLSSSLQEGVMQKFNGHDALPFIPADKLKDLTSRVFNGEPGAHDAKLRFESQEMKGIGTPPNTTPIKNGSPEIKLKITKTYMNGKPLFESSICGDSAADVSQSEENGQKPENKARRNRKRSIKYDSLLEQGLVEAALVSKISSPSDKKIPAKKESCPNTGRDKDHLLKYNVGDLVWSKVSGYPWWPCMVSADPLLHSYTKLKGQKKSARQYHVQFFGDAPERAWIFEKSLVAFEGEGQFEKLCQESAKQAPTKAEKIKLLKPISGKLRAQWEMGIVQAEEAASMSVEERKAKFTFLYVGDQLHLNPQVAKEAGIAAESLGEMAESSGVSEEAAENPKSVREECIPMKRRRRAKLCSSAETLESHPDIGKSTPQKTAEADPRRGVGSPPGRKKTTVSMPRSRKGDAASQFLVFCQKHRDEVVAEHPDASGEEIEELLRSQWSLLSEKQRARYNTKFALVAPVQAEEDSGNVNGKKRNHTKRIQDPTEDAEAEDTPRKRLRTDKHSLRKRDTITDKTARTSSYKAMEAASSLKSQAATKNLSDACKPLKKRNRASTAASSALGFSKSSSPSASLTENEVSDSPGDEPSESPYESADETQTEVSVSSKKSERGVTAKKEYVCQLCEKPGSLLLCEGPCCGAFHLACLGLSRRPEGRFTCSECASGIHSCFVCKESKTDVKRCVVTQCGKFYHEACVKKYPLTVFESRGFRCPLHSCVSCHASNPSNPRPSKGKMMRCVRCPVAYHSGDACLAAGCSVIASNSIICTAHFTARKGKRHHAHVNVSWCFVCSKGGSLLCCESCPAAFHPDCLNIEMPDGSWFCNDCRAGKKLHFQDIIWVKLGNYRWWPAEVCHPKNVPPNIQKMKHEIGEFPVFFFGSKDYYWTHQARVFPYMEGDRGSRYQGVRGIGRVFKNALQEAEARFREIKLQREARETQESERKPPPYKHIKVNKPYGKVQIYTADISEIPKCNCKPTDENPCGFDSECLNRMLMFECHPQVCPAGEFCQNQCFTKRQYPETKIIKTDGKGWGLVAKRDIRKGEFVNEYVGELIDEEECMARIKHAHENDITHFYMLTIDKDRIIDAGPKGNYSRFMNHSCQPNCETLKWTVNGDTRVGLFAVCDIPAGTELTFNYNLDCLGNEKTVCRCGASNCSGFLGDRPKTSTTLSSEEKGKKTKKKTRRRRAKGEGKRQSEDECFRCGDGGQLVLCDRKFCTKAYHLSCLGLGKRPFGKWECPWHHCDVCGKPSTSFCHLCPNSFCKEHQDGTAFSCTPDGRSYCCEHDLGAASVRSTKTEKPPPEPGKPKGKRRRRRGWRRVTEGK

[3] = biological target: T3, Tyrosyl-DNA phosphodiesterase 2 (Homo sapiens, UniProt O95551); assay: human TDP2 enzyme inhibitors, dose response, biochemical, epi absorbance, IC50 (AID 743297)
T3 sequence (O95551 whole entry): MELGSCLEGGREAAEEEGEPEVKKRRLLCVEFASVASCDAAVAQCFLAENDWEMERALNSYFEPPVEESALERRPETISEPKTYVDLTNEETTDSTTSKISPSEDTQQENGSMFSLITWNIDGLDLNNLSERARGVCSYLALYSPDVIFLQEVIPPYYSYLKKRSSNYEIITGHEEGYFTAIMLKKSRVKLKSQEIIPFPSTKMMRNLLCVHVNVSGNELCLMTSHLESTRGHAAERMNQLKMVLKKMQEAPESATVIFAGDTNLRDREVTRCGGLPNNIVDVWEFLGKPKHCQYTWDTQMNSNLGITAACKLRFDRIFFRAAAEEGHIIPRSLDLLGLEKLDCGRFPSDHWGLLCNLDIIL

[4] = biological target: T4, Leucine aminopeptidase (Plasmodium falciparum 3D7, UniProt Q8IL11); assay: P. falciparum M17LAP inhibitors, primary screen, biochemical, fluorogenic H-Leu-NHMec substrate, 1536-well (AID 1619); type: functional
T4 sequence (Q8IL11 whole entry): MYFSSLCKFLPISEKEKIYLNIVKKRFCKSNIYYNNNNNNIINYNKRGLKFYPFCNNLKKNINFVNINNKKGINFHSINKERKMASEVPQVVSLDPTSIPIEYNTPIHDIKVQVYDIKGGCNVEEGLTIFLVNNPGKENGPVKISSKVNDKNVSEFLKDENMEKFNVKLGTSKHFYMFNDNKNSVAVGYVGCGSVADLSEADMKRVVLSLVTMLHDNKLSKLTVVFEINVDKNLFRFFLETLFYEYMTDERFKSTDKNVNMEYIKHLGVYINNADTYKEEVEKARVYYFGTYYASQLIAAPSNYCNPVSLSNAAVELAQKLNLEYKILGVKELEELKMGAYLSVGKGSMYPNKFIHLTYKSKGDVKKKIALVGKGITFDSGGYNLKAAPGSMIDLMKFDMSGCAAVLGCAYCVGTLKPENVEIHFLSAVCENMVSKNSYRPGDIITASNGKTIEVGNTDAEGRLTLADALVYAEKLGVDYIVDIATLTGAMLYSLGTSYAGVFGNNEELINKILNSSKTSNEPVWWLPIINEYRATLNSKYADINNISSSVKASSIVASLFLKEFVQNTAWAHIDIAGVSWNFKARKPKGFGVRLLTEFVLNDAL

[5] = biological target: Mitogen-activated protein kinase 10 (Homo sapiens, UniProt P53779); assay: Dose response biochemical screening assay for inhibitors of c-Jun N-Terminal Kinase 3 (JNK3). [Related pubchem assays: 746 ]
[6] = A549 cell cytotoxicity, dose response, cytotoxicity control, plate reader, cherry-pick, antagonist series (AID 743412); type: functional, cell-based
[7] = LGR2 antagonists, dose response, cell-based, HEK293, CRE-luciferase reporter, cherry pick, set 2 (AID 743343); type: functional;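 also: transfected cells were stimulated with diluted bursicon conditioned medium after compound addition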
[8] = MC4R antagonists, dose response, counter-screen for LGR2 antagonist project, cell-based, plate reader, cherry pick (AID 743444); type: functional;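 also: transfected HEK 293 cells stimulated with alpha-MSH peptide; potency of inhibitors of the alpha-MSH evoked signal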
[9] = Luminescence Cell-Based Dose Confirmation HTS to Identify Activators of 5'UTR Stem-Loop Driven Alpha-Synuclein mRNA Translation in H4 Neuroglioblastoma Cells. [Related pubchem assays: 1829 (Project Summary), 1814 (Primary HTS)]; type: functional
[10] = Luminescence Cell-Based Dose Response HTS to Identify Activators of Luciferase Translation or Activity in H4 […] Cells. [Related pubchem assays: 1829 (Project Summary), 1814 (Primary HTS)]; type: functional
[11] = test system: H4; assay: Luminescence Cell-Based Dose Response HTS to Identify Activators of 5'UTR Stem-Loop Driven Prion Protein mRNA Translation in H4 Neuroglioblastoma Cells. [Related pubchem assays: 1829 (Project Summary), 1814 (Primary HTS)]; type: functional; details: Homo sapiens
[12] = THP-1 cell cytotoxicity, dose response, cytotoxicity control for non-replicating M. tuberculosis project (AID 489025); type: functional
[13] = Vero E6 cell cytotoxicity, dose response, cytotoxicity control for non-replicating M. tuberculosis project, secondary assay (AID 492998); type: functional, VeroE6; details: Vero C1008
[14] = biological target: FAD-linked sulfhydryl oxidase ALR (Homo sapiens, UniProt P55789); assay: inhibitors of human ALR sulfhydryl oxidase, dose response, biochemical, H2O2 detection, luminescence, cherry-pick (AID 493248)
[15] = cells; type: functional
[16] = biological target: Heat shock protein HSP 90-alpha (Homo sapiens, UniProt P07900); type: functional, organism-based
[17] = HeLa cell cytotoxicity, dose response, cytotoxicity control for MgcRacGAP inhibitor project (AID 624300); type: functional
[18] = biological target: T5, Rac GTPase-activating protein 1 (Homo sapiens, UniProt Q9H0H5); assay: MgcRacGAP GTPase-activating activity inhibitors, confirmation, biochemical, ADP Hunter fluorescence, primary and confirmatory (AID 624330); type: functional
T5 sequence (Q9H0H5 whole entry): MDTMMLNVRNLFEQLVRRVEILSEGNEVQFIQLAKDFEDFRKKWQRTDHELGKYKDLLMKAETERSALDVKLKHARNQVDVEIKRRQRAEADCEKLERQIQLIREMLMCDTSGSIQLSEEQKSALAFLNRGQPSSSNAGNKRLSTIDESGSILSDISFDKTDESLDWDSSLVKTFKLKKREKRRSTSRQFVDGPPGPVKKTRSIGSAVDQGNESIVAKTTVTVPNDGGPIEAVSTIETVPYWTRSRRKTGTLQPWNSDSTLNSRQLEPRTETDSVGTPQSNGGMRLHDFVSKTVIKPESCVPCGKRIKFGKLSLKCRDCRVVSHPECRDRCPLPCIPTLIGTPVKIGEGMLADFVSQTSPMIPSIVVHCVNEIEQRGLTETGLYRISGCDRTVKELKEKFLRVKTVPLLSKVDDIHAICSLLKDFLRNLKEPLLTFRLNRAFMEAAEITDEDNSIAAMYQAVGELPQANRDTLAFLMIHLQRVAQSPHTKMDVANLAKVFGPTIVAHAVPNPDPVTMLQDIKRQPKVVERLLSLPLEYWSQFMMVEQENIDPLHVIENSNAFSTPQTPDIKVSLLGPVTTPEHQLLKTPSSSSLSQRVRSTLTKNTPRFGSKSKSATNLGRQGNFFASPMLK

[19] = inhibitors of firefly luciferase expression or activity, dose response, H4 neuroglioma cells, luminescence (AID 1990); type: functional, cell-based
[20] = Luminescence Cell-Based Dose Response HTS to Identify Inhibitors of 5'UTR Stem-Loop Driven Prion Protein mRNA Translation in H4 Neuroglioblastoma Cells. [Related pubchem assays: 1827 (Project Summary), 1813 (Primary HTS)]; type: functional
[21] = inhibitors of SNCA 5'UTR-driven reporter translation, confirmation, H4 neuroglioma cells, luminescence (AID 1988); type: functional, cell-based
[22] = biological target: Albumin (Bos taurus, UniProt P02769); assay: Counterscreen for inhibitors of T-cell receptor (TCR)-CD3 interaction: Fluorescence-based biochemical high throughput dose response assay to identify inhibitors of T-cell receptor (TCR)-CD3 interaction using a TAMRA-labeled BSA probe.; type: functional
[23] = test system: Streptococcus sp. 'group A'; assay: growth inhibition of control SK(-) GAS strain, dose response, counter-screen for streptokinase expression inhibitor project, luminescence, kanamycin, BacTiterGlo, confirmation (AID 1900); type: functional, organism-based
[24] = cells; type: functional, cell-based
[25] = cells; type: functional, cell-based; remark: listed apart in the source
[26] = test system: Streptococcus; assay: Group A Streptococcus viability loss, dose response, counter-screen for streptokinase expression inhibitor project, luminescence, BacTiterGlo (AID 1915); type: functional, organism-based;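 also: potency for reduction of bacterial viability or growth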

Chain of Albumin (P02769 whole entry): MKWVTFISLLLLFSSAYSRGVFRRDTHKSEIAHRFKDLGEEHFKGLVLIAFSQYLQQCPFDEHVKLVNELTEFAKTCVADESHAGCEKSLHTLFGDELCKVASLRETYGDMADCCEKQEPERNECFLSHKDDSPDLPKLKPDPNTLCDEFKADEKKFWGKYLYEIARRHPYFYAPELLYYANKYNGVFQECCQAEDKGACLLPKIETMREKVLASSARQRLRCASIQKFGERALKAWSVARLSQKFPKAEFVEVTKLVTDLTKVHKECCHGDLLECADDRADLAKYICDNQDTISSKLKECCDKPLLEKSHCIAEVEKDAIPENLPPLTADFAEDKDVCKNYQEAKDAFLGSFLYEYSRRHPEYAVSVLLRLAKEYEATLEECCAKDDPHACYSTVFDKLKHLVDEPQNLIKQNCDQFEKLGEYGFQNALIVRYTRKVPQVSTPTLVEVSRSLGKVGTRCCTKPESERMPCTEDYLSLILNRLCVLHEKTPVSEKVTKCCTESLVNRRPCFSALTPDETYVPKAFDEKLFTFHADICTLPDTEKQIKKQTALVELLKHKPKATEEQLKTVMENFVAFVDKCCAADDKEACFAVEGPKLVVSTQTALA
Chain of Mitogen-activated protein kinase 10 (P53779 whole entry): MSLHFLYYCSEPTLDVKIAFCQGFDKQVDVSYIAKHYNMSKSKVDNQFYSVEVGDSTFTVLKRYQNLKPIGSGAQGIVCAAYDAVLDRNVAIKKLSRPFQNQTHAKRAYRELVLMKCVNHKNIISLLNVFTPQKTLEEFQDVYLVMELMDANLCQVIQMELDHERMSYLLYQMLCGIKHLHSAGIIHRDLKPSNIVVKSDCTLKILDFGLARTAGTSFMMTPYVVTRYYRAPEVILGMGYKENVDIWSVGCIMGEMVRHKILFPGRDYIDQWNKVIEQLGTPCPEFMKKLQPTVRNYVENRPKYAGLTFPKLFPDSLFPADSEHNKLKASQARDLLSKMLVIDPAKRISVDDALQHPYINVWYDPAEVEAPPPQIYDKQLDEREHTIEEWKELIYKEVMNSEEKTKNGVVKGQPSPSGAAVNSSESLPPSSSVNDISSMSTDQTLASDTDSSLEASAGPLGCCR
Chain of FAD-linked sulfhydryl oxidase ALR (P55789 whole entry): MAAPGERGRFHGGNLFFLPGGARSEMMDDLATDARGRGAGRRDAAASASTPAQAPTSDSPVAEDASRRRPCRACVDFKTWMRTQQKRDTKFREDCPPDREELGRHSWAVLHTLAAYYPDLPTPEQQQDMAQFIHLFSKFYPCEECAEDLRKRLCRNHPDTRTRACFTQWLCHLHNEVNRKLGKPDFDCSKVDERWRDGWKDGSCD

## O=C(Cn1cnc([N+](=O)[O-])n1)c1ccc(O)c(O)c1
[1]
  AC50: 43.9 µM (active)

## CC(=O)N1CCn2c3c(c(=O)c4cc(C)ccc42)CCC31 (stereo not drawn)
[2]
  AC50: 7.99 µM (active)
[3]
  IC50: 43.5 µM (inactive)

## CCOc1ccc(NC(=O)CN2C(=O)C3CCCN3C2=O)cc1 (stereo not drawn)
[4]
  IC50: 3.23 µM (active)
[5]
  IC50: > 93.1 µM (not active)

## O=S(=O)(c1ccc2c(c1)OCCO2)N1CCC(n2cnc3cc(F)ccc32)CC1
[5]
  IC50: 49.4 µM (not active)

## O=C1CC(c2ccc3c(c2)OCO3)Sc2nc3ccccc3n21 (stereo not drawn)
[6]
  AC50: > 52 µM (inactive)
[7]
  AC50: 13.1 µM (active)
[8]
  AC50: 11.2 µM (active)

## COc1ccc(/C(C#N)=C2C=C/C(=N/O)C=C/2)cc1
[9]
  EC50: 16.7 µM (active)
[10]
  EC50: 14.5 µM (active)
[11]
  EC50: 17.6 µM (active)
[12]
  CC50: 13 µM (active)
[13]
  CC50: 13.3 µM (active)
[14]
  AC50: 5.88 µM (active)
[15]
  IC50: 44.8 µM (active)
[16]
  AC50: 4.64 µM (active)
[17]
  CC50: 89.3 µM (active)
[18]
  IC50: 93 µM (active)

## CCCCCCn1c(=O)c(C(=O)Nc2ncccc2O)c(O)c2ccccc21
[19]
  EC50: 10.7 µM (active)
[20]
  EC50: 22.7 µM (active)
[21]
  EC50: 9.12 µM (active)
[22]
  IC50: > 94.2 µM (inactive)

## Cc1nc2ccccc2c(=O)n1/N=C/c1cc(Br)cc(Br)c1O
[23]
  EC50: 5.09 µM (active)
[24]
  EC50: > 350 µM (not active)
[25]
  EC50: > 350 µM (not active)
[26]
  EC50: 8.18 µM (active)
[22]
  IC50: > 94.1 µM (inactive)
